Experimental data as given in publication PMC5396265 (Angewandte Chemie (International Ed. in English), 2017).

Target: SPM-1 (São Paulo metallo-β-lactamase; SPM-1* for 19F-labelled variants) (Pseudomonas aeruginosa, UniProt Q8G9Q0, Y58C)
Conditions: Cys58 labelled with CH2COCF3 (BTFA); meropenem up to 400 uM, 40 uM protein, 50 mM Tris pH 7.5, 9:1 H2O/D2O; product formed in situ; presence of this pair in Table S3 not seen

SPM-1 (São Paulo metallo-β-lactamase; SPM-1* for 19F-labelled variants), sequence (Q8G9Q0 29-276 Y58C): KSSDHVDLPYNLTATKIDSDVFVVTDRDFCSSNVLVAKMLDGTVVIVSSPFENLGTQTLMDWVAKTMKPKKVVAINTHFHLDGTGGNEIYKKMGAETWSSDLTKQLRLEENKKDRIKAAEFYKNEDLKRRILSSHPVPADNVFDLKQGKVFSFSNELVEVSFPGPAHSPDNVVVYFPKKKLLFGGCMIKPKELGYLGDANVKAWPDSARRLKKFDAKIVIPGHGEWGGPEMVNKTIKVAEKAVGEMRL

CC(O)C(C(=O)O)C1NC(C(=O)O)=C(SC2CNC(C(=O)N(C)C)C2)C1C (stereo not shown) [hydrolyzed meropenem]
Kd: 100 ± 10 µM
